Results from patent US20250170224A1, “METHODS AND COMPOSITIONS FOR TREATING MICROGLIAL DYSFUNCTION AND IMPROVING METABOLIC DYSFUNCTION” (Ultimate Medicine AG, priority 2021, published 2025).

Tested on: microglia
Assay: CML given intraperitoneally or by oral gavage to young-adult and aged SPF mice; microglia analysed
Assay type: in vivo, mouse
Description: Specific pathogen-free (SPF) and germ-free (GF) housed C57BL/6 mice were analyzed at 6-10 weeks of age (young-adult) and 96-104 weeks of age (aged). Mice of the aged group in the nontargeted metabolomics analysis were 17-18 months old. Except for nontargeted metabolomics and microbiota profiling, where only male mice were used, all groups included mice from both sexes. Mice were housed under a 12-hour light/12-hour dark cycle and temperatures of 18-23° C. with 40-60% humidity, with food and water given ad libitum. To avoid cage effects, mice from at least three different cages per experimental group were analyzed. […] For modulation of CML in aged animals, 18-month-old SPF housed C57BL/6 mice were treated orally every third day for 10 weeks with vehicle (20% hydroxypropyl-p-cyclodextrin in 1× phosphate-buffered saline (PBS)), 10 mg kg^−1 ellagic acid (EA) or 3,000 U kg^−1 intestinal alkaline phosphatase (IAP). To assess in vivo intestinal permeability, tracer fluorescein isothiocyanate (FITC)-labeled dextran (4 kDa: Sigma-Aldrich) was used. Briefly, mice were deprived of food 4 hours before and both food and water 4 hours after oral gavage using 200 μl of 80 mg ml^−1 FITC-dextran. Blood was collected retro-orbitally after 4 hours and fluorescence intensity was measured on fluorescence plates using an excitation wavelength of 493 nm and an emission wavelength of 518 nm. To assess in vivo intestinal permeability to CML, mice were treated with […] CML (0.36 mM). Blood was collected retro-orbitally immediately before and 4 hours after treatment. CML translocated into the circulation was measured by liquid chromatography-mass spectrometry (LC-MS). All animal experiments were approved by the local administration in Germany (Regierungsprasidium Freiburg) and were performed in accordance with the respective national, federal, and institutional regulations and the guidelines of the Federation of European Laboratory Animal Science Associations.
Brains were fixed in 4% PFA, dehydrated in 30% sucrose and embedded in Tissue-Tek OCT compound (Sakura Finetek). Fourteen micrometer-thick cryosections were obtained using a cryostat (SM2000R; Leica Biosystems). FFPE tissue from mouse and human brains was sectioned by a microtome to obtain 5-pm sections. Epitopes were unmasked by heat-induced antigen retrieval at pH 6. Sections were blocked with PBS containing 5% bovine serum albumin (BSA) and permeabilized with 0.5% Triton X-100 in blocking solution. The following primary antibodies were incubated overnight at 4° C.: rabbit anti-Iba-1 (1:500 dilution; WAKO); guinea pig anti-Iba-1 (1:1,000 dilution; Synaptic Systems); anti-iNOS (1:500 dilution; Thermo Fisher Scientific) or anti-CML (1:500; Abcam). Secondary antibodies (Alexa Fluor 488-, 568- or 647-conjugated, 1:500 dilution) were incubated for 2 hours at room temperature. For three dimensional (3D)-reconstruction of microglia, free-floating 30-pm cryosections from brain tissue were labeled for 48 hours with anti-Iba-1 (1:500 dilution) at 4° C., followed by Alexa Fluor 647-conjugated secondary antibody at a dilution of 1:500 overnight at 4° C. […] For 3D-reconstruction of microglia, images were analyzed using Imaris v.8.02 (Bitplane) with at least five cells per mouse. All other images were processed and analyzed with Photoshop CC 2015 (Adobe) or ImageJ v.1.53f (National Institutes of Health). […]

[1] = aged mice, both intraperitoneal and oral gavage routes

Structure (SMILES): N[C@@H](CCCCNCC(=O)O)C(=O)O [CML, N^6-carboxymethyllysine]
- cellular ROS in microglia [1]: significantly exacerbated the age-related increase in cellular ROS
- metabolic function (cellular ATP) in microglia [1]: diminished metabolic function
- effect of route of CML administration on percentage of CML+ microglia (aged mice, i.p. versus oral gavage): no effect
- CML+ microglia in the cortex, intraperitoneal rather than oral gavage (young-adult mice): more CML^+ microglia in the cortex
- effect on cellular ROS and metabolic function in microglia (young-adult mice, i.p. versus oral gavage): only detectable after intraperitoneal administration
